Assay results taken from patent US20140221283A1 (Indiana University Research and Technology Corporation, priority 2011, published 2014).
*1 amine or outer side, *2 acyl side, *3 side chain or, on linkers, in order; H or OH if unused. Where a SMILES comes first, the peptide text is derived from it. Side-chain parts run from the residue outwards. [ ]: non-standard residue; d: D form. The star is where a group is joined. γGlu = O=C(O)[C@H](CCC(=O)[*:2])N[*:1]; Palmitoyl = CCCCCCCCCCCCCCCC(=O)*; Aib = CC(C)(N)C(=O)O

What was measured:
human GCGR = target: T1, human GCGR (Homo sapiens, UniProt P47871); test: cAMP production in CHO-K1 cells stably expressing human GCGR, DiscoveRx Hithunter cAMP XS+ (Example 4); format: cell-based; conditions: procedure of Example 4
T1 construct: host or cells: CHO-K1
T1 sequence (P47871 26-477): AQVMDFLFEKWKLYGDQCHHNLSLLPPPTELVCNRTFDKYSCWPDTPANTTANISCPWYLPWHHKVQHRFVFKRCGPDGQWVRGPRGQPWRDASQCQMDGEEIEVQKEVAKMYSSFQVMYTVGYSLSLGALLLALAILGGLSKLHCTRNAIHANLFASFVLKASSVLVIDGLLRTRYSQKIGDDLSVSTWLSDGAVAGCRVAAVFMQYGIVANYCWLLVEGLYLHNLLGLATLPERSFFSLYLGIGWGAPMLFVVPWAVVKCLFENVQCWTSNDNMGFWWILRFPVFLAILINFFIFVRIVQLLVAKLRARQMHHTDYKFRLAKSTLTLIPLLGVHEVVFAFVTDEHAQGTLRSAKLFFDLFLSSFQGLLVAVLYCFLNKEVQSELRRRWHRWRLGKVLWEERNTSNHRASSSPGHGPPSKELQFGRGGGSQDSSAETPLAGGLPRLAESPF
Protocol: (§1) The in vitro agonist potencies of the peptide of SEQ ID NO. 17 were determined using Chinese Hamster Ovary cells (CHO-K1) stably expressing human GLP-1R, GCGR or GIPR. The GLP-1R and GCGR stable cell line isogenic pools were generated by Invitrogen using their Jump-In™ targeted integration technology, whereas the stable CHO/GIPR lines were generated through classic cloning and transfection techniques (random integration) with limited dilution for selection of clones. The peptides were tested in vitro for their relative abilities to stimulate cAMP production in the various cell lines using the DiscoveRx Hithunter™ cAMP XS+ assay kit (cat#90-0075L) as per kit instructions.

human GIPR = target: T2, human GIPR (Homo sapiens, UniProt P48546); test: cAMP production in CHO-K1 cells stably expressing human GIPR, DiscoveRx Hithunter cAMP XS+ (Example 4); format: cell-based; conditions: procedure of Example 4, read-out: EC50 (nM) at GIP receptor
T2 construct: expressed in transfected cells; host or cells: CHO-K1
T2 sequence (P48546 22-466): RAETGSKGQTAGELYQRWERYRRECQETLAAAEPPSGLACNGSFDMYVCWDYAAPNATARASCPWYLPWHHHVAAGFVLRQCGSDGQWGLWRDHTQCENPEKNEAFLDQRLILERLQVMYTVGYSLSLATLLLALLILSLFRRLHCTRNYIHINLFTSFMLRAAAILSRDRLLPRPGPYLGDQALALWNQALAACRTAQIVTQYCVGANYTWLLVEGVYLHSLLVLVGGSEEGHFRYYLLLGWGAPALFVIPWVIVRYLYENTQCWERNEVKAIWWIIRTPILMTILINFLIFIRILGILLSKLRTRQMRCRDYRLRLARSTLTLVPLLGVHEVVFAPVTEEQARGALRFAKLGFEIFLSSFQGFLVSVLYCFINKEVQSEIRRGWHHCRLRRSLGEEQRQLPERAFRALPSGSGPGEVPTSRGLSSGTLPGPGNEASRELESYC
Protocol: as §1

[1] = body weight of diet-induced obese (DIO) mice dosed daily for nine days (Example 7); format: in vivo; conditions: Day 9
Protocol: (§2) Mice were administered a vehicle control or a dose of a peptide daily for nine days. The peptides tested in this study included a peptide of SEQ ID NO: 12, a peptide of SEQ ID NO: 17, a peptide of SEQ ID NO: 18, and a peptide of SEQ ID NO: 19. Doses of each peptide were varied—each of the peptides of SEQ ID NO: 12, 17, and 19 was administered at a dose of either 3 nmol/kg or 9 nmol/kg, while the peptide of SEQ ID NO: 18 was administered at a dose of 1 nmol/kg, 3 nmol/kg, or 9 nmol/kg. Data are expressed as mean±SEM.

[2] = ambient glucose levels of DIO mice dosed daily for nine days (Example 7); format: in vivo
Protocol: as §2
In addition to cumulative body weight change, ambient glucose levels of the DIO mice were measured.

[3] = body weight of obese rhesus monkeys dosed daily for 21 days (Example 8); format: in vivo
Protocol: (§3) The in vivo effects of a peptide of the invention were confirmed in obese rhesus monkeys by administering daily for 21 days a vehicle control, a commercially available product (Liraglutide), a peptide of SEQ ID NO: 20, or a peptide of SEQ ID NO: 17. […] Body weight and food intake were measured.

[4] = food intake of obese rhesus monkeys dosed daily for 21 days (Example 8); format: in vivo; conditions: 3 μg/kg s.c. daily for 21 days
Protocol: as §3

[5] = fasting blood glucose (FBG) of diabetic rhesus monkeys treated for 10 days (Example 9); format: in vivo; conditions: 1 μg/kg s.c. for 10 days
Protocol: (§4) The in vivo effects of a peptide of the invention were tested in diabetic rhesus monkeys (n=7) that were aged 16-26 years and having an average body weight of […]. Diabetic rhesus monkeys (n=7) that were aged 16-26 years with an average body weight of […] were administered a vehicle control, Liraglutide at a dose of 10 μg/kg s.c. or a peptide of SEQ ID NO: 17 at a dose of 1 μg/kg s.c. for 10 days. At the end of each treatment, fasting blood glucose (FBG) was measured first followed by a Meal Tolerance Test (MTT) to assess glucose tolerance. […] Data are expressed in FIG. 4 as mean±SEM. *P<0.05 versus vehicle.

[6] = Meal Tolerance Test (MTT) in diabetic rhesus monkeys treated for 10 days (Example 9); format: in vivo; conditions: 1 μg/kg s.c. for 10 days
Protocol: as §4

human GLP-1R = human GLP-1R (Homo sapiens, UniProt P43220); test: cAMP production in CHO-K1 cells stably expressing human GLP-1R, DiscoveRx Hithunter cAMP XS+ (Example 4); format: cell-based; parameters: host or cells: CHO-K1; conditions: CHO-K1 stably expressing human GLP-1R, procedure of Example 4
Chain of human GLP-1R (P43220 24-463): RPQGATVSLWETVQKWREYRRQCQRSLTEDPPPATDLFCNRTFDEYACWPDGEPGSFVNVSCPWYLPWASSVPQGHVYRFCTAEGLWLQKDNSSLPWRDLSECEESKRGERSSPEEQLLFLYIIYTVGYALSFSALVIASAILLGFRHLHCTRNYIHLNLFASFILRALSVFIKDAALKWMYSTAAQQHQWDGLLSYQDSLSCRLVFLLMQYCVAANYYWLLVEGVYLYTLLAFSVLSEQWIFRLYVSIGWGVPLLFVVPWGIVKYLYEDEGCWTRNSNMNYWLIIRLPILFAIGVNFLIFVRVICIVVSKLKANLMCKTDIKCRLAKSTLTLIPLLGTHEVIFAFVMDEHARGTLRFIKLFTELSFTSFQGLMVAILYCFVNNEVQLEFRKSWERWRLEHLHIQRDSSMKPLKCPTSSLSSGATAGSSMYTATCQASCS
Protocol: as §1

CCCCCCCCCCCCCCCC(=O)N[C@@H](CCC(=O)N[C@@H](CCC(=O)NCCCC[C@H](NC(=O)[C@H](CC(=O)O)NC(=O)[C@H](CO)NC(=O)[C@@H](NC(=O)[C@H](Cc1ccccc1)NC(=O)[C@@H](NC(=O)CNC(=O)[C@H](CCC(N)=O)NC(=O)C(C)(C)NC(=O)[C@@H](N)Cc1c[nH]cn1)[C@@H](C)O)[C@@H](C)O)C(=O)N[C@@H](CO)C(=O)N[C@@H](CCCCN)C(=O)N[C@@H](Cc1ccc(O)cc1)C(=O)N[C@@H](CC(C)C)C(=O)N[C@@H](CC(=O)O)C(=O)NC(C)(C)C(=O)N[C@@H](CCCNC(=N)N)C(=O)N[C@@H](C)C(=O)N[C@@H](C)C(=O)N[C@@H](CCC(N)=O)C(=O)N[C@@H](CC(=O)O)C(=O)N[C@@H](Cc1ccccc1)C(=O)N[C@H](C(=O)N[C@@H](CCC(N)=O)C(=O)N[C@@H](Cc1c[nH]c2ccccc12)C(=O)N[C@@H](CC(C)C)C(=O)N[C@@H](CCSC)C(=O)N[C@@H](CC(N)=O)C(=O)N[C@H](C(=O)N[C@@H](CCCCN)C(=O)N[C@@H](CCC(N)=O)C(=O)O)[C@@H](C)O)C(C)C)C(=O)O)C(=O)O [SEQ ID NO: 17] (H-H[Aib]QGTFTSDK([γGlu-γGlu-Palmitoyl])SKYLD[Aib]RAAQDFVQWLMNTKQ-OH; N-terminus assumed)
EC50 (human GCGR): 0.11 nM
EC50 (human GIPR): > 2000 nM
body weight reduction ([1]; 3 nmol/kg daily): ~9.6%
body weight loss ([1]; 9 nmol/kg daily): ~35.5%
reduction in glucose levels compared to vehicle control mice ([2]; 3 nmol/kg daily, Day 7): ~28%
decrease in glucose levels compared to vehicle control mice ([2]; 3 nmol/kg daily, Day 9): ~19%
decrease in glucose levels compared to vehicle control mice ([2]; 9 nmol/kg daily, Day 4): ~48%
decrease in glucose levels compared to vehicle control mice ([2]; 9 nmol/kg daily, Day 7): ~48%
decrease in glucose levels compared to vehicle control mice ([2]; 9 nmol/kg daily, Day 9): ~45%
weight loss vs. baseline and vehicle ([3]; 3 μg/kg s.c. daily for 21 days): -1.2 kg
body weight following a one week wash-out ([3]; Day 28, after 21 days at 3 μg/kg s.c.): regained much of the weight that was lost
food intake, % change vs. baseline [4]: −25.7%
FBG change vs. vehicle [5]: −25%
fasting blood glucose (FBG) ([5]; mean±SEM): 120 ± 20 mg/dL
glucose tolerance during MTT as compared to vehicle [6]: improved glucose tolerance
EC50 (human GLP-1R): 0.075 nM
